Source: patent US12473313B2, “Therapeutic compounds and methods of use thereof” (Regents of the University of Minnesota, priority 2020, dated 2025)

What was measured:
[1] = target: mitochondrial reactive oxygen species (mitoROS); assay: ROS-Glo Assay of superoxide dismutase activity on menadione-induced mitoROS; type: cell-based; conditions: for half maximal effective concentration (EC50) for mitoROS suppression: FIG. 6, compared with mitoTEMPO
Text: To test compounds for mitochondrial antioxidant behavior, the ROS-Glo Assay to assess superoxide dismutase activity of induced mitochondrial reactive oxygen species (mitoROS). In this assay, menadione is used to induce mitoROS production, and then a […] is used to measure the resultant hydrogen peroxide levels. A higher level of hydrogen peroxide means more dismutase activity.

diabetic mice = assay: Diastolic dysfunction (E/e′ ratio by echocardiography) in high fat diet diabetic mice; type: in vivo; conditions: diabetic mice (high fat diet 16 weeks), 1 mg/kg/day for 2 weeks
Description: (§1) To test compound activity against mitochondrial oxidative stress and diastolic dysfunction Mice were fed a high fat diet for 16 weeks starting at 6 weeks of age. Before treatment, fasting blood glucose (Gluc) and body weight were measured. Gluc was used to screen for diabetes mellitus (DM). Echocardiography was used to identify DD by measuring the E/e′ ratio. Treatment of compounds 58 and 94 was 1 mg/kg/day for 2 weeks. Then, E/e′ was reassessed.

[2] = tested on: mitoROS in diabetic (DM) mice; assay: mitoROS in diabetic (DM) mice measured by mitoSOX Red fluorescence; type: in vivo; conditions: FIG. 9
Description: as §1

[3] = Body weight and serum glucose of treated diabetic mice; type: in vivo; conditions: 1 mg/kg/day for 2 weeks, versus before treatment
Description: as §1

mice with HFpEF = mice with HFpEF (Jeong et al. J Am Heart Assoc. 2016); cited from earlier work

| SMILES | half maximal effective concentration (EC50) for mitoROS suppression [1] | diastolic dysfunction as measured by E/e′ ratio (diabetic mice) | body weight [3] | also measured |
| --- | --- | --- | --- | --- |
| COc1ccc([P@TB15+](CC(=O)NC2CC(C)(C)N([O])C(C)(C)C2)(c2ccc(OC)cc2)c2ccc(OC)cc2)cc1 [compound 2, 2,2,6,6-Tetramethyl-4-[[2-(tri-4-methoxyphenyl-phosphonio)acetyl]amino]-1-piperidinyloxy Chloride] | lower EC50s for mitoROS suppression than did mitoTEMPO | – | – | – |
| COc1ccc([P+](CCC(=O)NC2CC(C)(C)N(O)C(C)(C)C2)(c2ccc(OC)cc2)c2ccc(OC)cc2)cc1.[Br-] [compound 58, 2,2,6,6-Tetramethyl-4-[[3-(tri-4-methoxyphenylphosphonio)-propionyl]amino]-1-piperidinyloxy Bromide] | – | Diastolic dysfunction is treated | Neither serum glucose nor body weight were affected | half maximal inhibitory concentration (IC50) ([1]; ROS-Glo assay, FIG. 5, compared with mitoTEMPO): better than that of mitoTEMPO; mitoROS as measured by mitoSOX Red fluorescence [2]: able to reduces mitoROS |
| CC1(C)CC(NC(=O)CCCCC[P+](c2ccc(F)cc2)(c2ccc(F)cc2)c2ccc(F)cc2)CC(C)(C)N1[O].[Br-] [compound 86, 2,2,6,6-Tetramethyl-4-[[6-(tri-4-fluorophenylphosphonio)-hexanoyl]amino]-1-piperidinyloxy Bromide] | lower EC50s for mitoROS suppression than did mitoTEMPO | – | – | – |
| COc1cc(OC)c([P+](CC(=O)NC2CC(C)(C)N([O])C(C)(C)C2)(c2c(OC)cc(OC)cc2OC)c2c(OC)cc(OC)cc2OC)c(OC)c1.[Cl-] [compound 88, 2,2,6,6-Tetramethyl-4-[[2-(tri-2,4,6-trimethoxyphenyl(2-phosphonia))acetyl]amino]-1-piperidinyloxy Chloride] | lower EC50s for mitoROS suppression than did mitoTEMPO | – | – | – |
| CC1(C)CC(NC(=O)C[P+](c2ccc(F)cc2)(c2ccc(F)cc2)c2ccc(F)cc2)CC(C)(C)N1[O].[Cl-] [compound 94, 2,2,6,6-Tetramethyl-4-[[2-(tri-4-fluorophenylphosphonio)-acetyl]amino]-1-piperidinyloxy Chloride] | – | Diastolic dysfunction is treated | did not affect | – |
| CC1(C)CC(NC(=O)C[P+](c2ccccc2)(c2ccccc2)c2ccccc2)CC(C)(C)N1[O] [mitoTEMPO] | – | – | – | diastolic function (mice with HFpEF): improve diastolic function |
